Earlier results on two compounds are cited in patent publication US20130108599A1, “Herbal Vaginal Compositions” (priority 2011, published 2013).

Data set [1] deals with Candida albicans (KCTC 7270).

The structures appear in SMILES notation.

As to `Cn1c(=O)c2c(ncn2C)n(C)c1=O` [caffeine], the “growth of C. albicans” value in data set [1] was “strongly inhibited”.
Regarding `O=C(O[C@@H]1Cc2c(O)cc(O)cc2O[C@@H]1c1cc(O)c(O)c(O)c1)c1cc(O)c(O)c(O)c1` [epigallocatechin gallate], the “anti-microbial activity among the catechins” value in the data set on vaginal pathogens is “strongest anti-microbial activity”.
